US6462047B1, “Carboline derivatives as cGMP phosphodiesterase inhibitors” (ICOS Corporation, priority 2001, dated 2002)

Legend:
[1] = tested on: conscious spontaneously hypertensive rats (SHRs); test: Hypotensive effects in conscious spontaneously hypertensive rats; format: in vivo, rat; details: orally 5 mg/kg in 5% DMF and 95% olive oil; AUC from 0 to 5 hours of the fall in blood pressure
Experimental: The hypotensive effects of compounds according to the invention as identified in Table 2 were studied in conscious spontaneously hypertensive rats (SHRs). The compounds were administered orally at a dose of 5 mg/kg in a mixture of 5% DMF and 95% olive oil. Blood pressure was measured from a catheter inserted in the carotid artery and recorded for five hours after administration. The results are expressed as Area Under the Curve (AUC) from 0 to 5 hours, mm Hg.hours of the fall in blood pressure over time.

[2] = tested on: Rat aortic smooth muscle cells (RSMC); test: cGMP level measurements in ANF-stimulated rat aortic smooth muscle cells; format: cell-based; details: 30 minutes at 37° C. with compound, then ANF (100 nM) for 10 minutes, dose giving half of the stimulation at saturating concentrations
Experimental: Rat aortic smooth muscle cells (RSMC), prepared according to Chamley et al., Cell Tissue Res., 177, 503-522 (1977), were used between the 10th and 25th passage at confluence in 24-well culture dishes. Culture media was aspirated and replaced with PBS (0.5 ml) containing the compound tested at the appropriate concentration. After 30 minutes at 37° C., particulates guanylate cyclase was stimulated by addition of ANF (100 nM) for 10 minutes. At the end of incubation, the medium was withdrawn, and two extractions were performed by addition of 65% ethanol (0.25 ml). The two ethanolic extracts were pooled and evaporated until dryness, using a Speed-vac system. cGMP was measured after acetylation by scintillation proximity immunoassay (AMERSHAM). The EC50 values are expressed as the dose-giving half of the stimulation at saturating concentrations.

human recombinant PDE5 = human recombinant PDE5 (Homo sapiens, UniProt O76074); test: Inhibitory effect on cGMP-PDE (one-step assay adapted from Wells et al.); format: biochemical; details: human recombinant PDE5, 0.15 μM 8-[H3]-cGMP, 30 minutes incubation, 2% DMSO
Experimental: cGMP-PDE activity of compounds of the present invention was measured using a one-step assay adapted from Wells et al., Biochim. Biophys. Acta, 384, 430 (1975). The reaction medium contained 50 mM Tris-HCl, pH 7.5, 5 mM magnesium acetate, 250 μg/ml 5′-Nucleotidase, 1 mM EGTA, and 0.15 μM 8-[H^3]-cGMP. The enzyme used was a human recombinant PDE5 (ICOS Corp., Bothell, Wash.).
Compounds of the invention were dissolved in DMSO finally present at 2% in the assay.

Compound	melting point	SHR AUC PO [1]	EC50 [2]	IC50 (human recombinant PDE5)
O=C(/C=C/c1cccnc1)N1CCc2c([nH]c3ccccc23)C1c1ccc2c(c1)OCO2 (stereo not drawn) [Example 1, (E)-1-[1-(3,4-Methylenedioxyphenyl)-2,3,4,9-tetrahydro-β-carbolin-2-yl]-3-(pyridin-3-yl)-propene-1-one]	240 °C	61 mm Hg.h	500 nM	58 nM
O=C(/C=C/c1ccccn1)N1CCc2c([nH]c3ccccc23)C1c1ccc2c(c1)OCO2 (stereo not drawn) [Example 2, (E)-1-[1-(3,4-Methylenedioxyphenyl)-2,3,4,9-tetrahydro-β-carbolin-2-yl]-3-(pyridin-2-yl)-propene-1-one]	135 to 141 °C			76 nM
O=C(/C=C/c1ccccn1)N1CCc2c([nH]c3ccccc23)C1c1ccccc1 (stereo not drawn) [Example 3, (E)-1-[1-phenyl-2,3,4,9-tetrahydro-β-carbolin-2-yl]-3-(pyridin-2-yl)-propene-1-one]	130 to 135 °C			740 nM
O=C(/C=C/c1ccncc1)N1CCc2c([nH]c3ccccc23)C1c1ccc2c(c1)OCO2 (centres unmarked) [Example 4]	224 to 225 °C		500 nM	46 nM
O=C(/C=C/c1cccnc1)N1CCc2c([nH]c3ccccc23)C1c1ccc2c(c1)CCO2 (stereo not drawn) [Example 5, (E)-1-[1-(2,3-Dihydrobenzofuran-5-yl)-2,3,4,9-tetrahydro-β-carbolin-2-yl]-3-(pyridin-3-yl)-propene-1-one]	221 to 222 °C	12 mm Hg.h	< 1000 nM	14 nM
CN(C)CCOc1ccc(/C=C/C(=O)N2CCc3c([nH]c4ccccc34)[C@H]2c2ccc3c(c2)CCO3)cn1 [Example 6, (E)-1R-1-[1-(2,3-Dihydrobenzofuran-5-yl)-2,3,4,9-tetrahydro-β-carbolin-2-yl]-3-[6-(2-dimethylaminoethoxy)-pyridin-3-yl]-propene-1-one]	155 °C	95 mm Hg.h	< 1000 nM	10 nM
CN(C)c1ccc(/C=C/C(=O)N2CCc3c([nH]c4ccccc34)[C@H]2c2ccc3c(c2)CCO3)cn1 [Example 7, (E)-(R)-1-[1-(2,3-Dihydrobenzofuran-5-yl)-2,3,4,9-tetrahydro-β-carbolin-2-yl]-3-(6-dimethylamino-pyridin-3-yl)-propene-1-one]	171 °C	156 mm Hg.h	< 1000 nM	6 nM
CNc1ccc(/C=C/C(=O)N2CCc3c([nH]c4ccccc34)[C@H]2c2ccc3c(c2)CCO3)cn1 [Example 8, (E)-(R)-1-[1-(2,3-Dihydrobenzofuran-5-yl)-2,3,4,9-tetrahydro-β-carbolin-2-yl]-3-(6-methylaminopyridin-3-yl)-propene-1-one]	171 °C	50 mm Hg.h	< 1000 nM	7 nM
CN1CCN(c2ccc(/C=C/C(=O)N3CCc4c([nH]c5ccccc45)[C@H]3c3ccc4c(c3)CCO4)cn2)CC1 [Example 9, (E)-(R)-1-[1-(2,3-Dihydrobenzofuran-5-yl)-2,3,4,9-tetrahydro-β-carbolin-2-yl]-3-[6-(4-methylpiperazin-1-yl)-pyridin-3-yl]-propene-1-one]	> 260 °C	63 mm Hg.h	1000 nM	25 nM
O=C(/C=C/c1ccc(N2CCCC2)nc1)N1CCc2c([nH]c3ccccc23)[C@H]1c1ccc2c(c1)CCO2 [Example 10, (E)-(R)-1-[1-(2,3-Dihydrobenzofuran-5-yl)-2,3,4,9-tetrahydro-β-carbolin-2-yl]-3-(6-pyrrolidin-1-yl-pyridin-3-yl)-propene-1-one]	201 °C		< 1000 nM	9 nM
COC(=O)c1ccc(/C=C/C(=O)N2CCc3c([nH]c4ccccc34)[C@H]2c2ccc3c(c2)CCO3)nc1 [Example 11, (E)-(R)-6-{3-[1-(2,3-Dihydrobenzofuran-5-yl)-2,3,4,9-tetrahydro-β-carbolin-2-yl]-3-oxo-propenyl}-nicotinic acid methyl ester]	> 260 °C		< 1000 nM	27 nM
O=C(O)c1ccc(/C=C/C(=O)N2CCc3c([nH]c4ccccc34)[C@H]2c2ccc3c(c2)CCO3)nc1 [Example 12, (E)-(R)-6-{3-[1-(2,3-Dihydrobenzofuran-5-yl)-2,3,4,9-tetrahydro-β-carbolin-2-yl]-3-oxo-propenyl}-nicotinic acid]	183 °C		5000 nM	3 nM
CN(C)Cc1ccc(/C=C/C(=O)N2CCc3c([nH]c4ccccc34)[C@H]2c2ccc3c(c2)CCO3)cn1 [Example 13, (E)-(R)-1-[1-(2,3-Dihydrobenzofuran-5-yl)-2,3,4,9-tetrahydro-β-carbolin-2-yl]-3-(6-dimethylaminomethyl-pyridin-3-yl)-propene-1-one]	163 °C	57 mm Hg.h	< 1000 nM	30 nM
CN(C)Cc1ccc(/C=C/C(=O)N2CCc3c([nH]c4ccccc34)[C@H]2c2ccc3c(c2)CCO3)s1 [Example 14, (E)-1R-1-[1-(2,3-Dihydrobenzofuran-5-yl)-2,3,4,9-tetrahydro-β-carboline-2-yl]-3-(5-dimethylaminomethyl-thiophen-2-yl)-propene-1-one]		107 mm Hg.h	1500 nM	5 nM
O=C(/C=C/c1ccc(CN2CCCC2)s1)N1CCc2c([nH]c3ccccc23)[C@H]1c1ccc2c(c1)CCO2 [Example 15, (E)-1R-1-[1-(2,3-Dihydrobenzofuran-5-yl)-2,3,4,9-tetrahydro-β-carboline-2-yl]-3-(5-pyrrolidin-1-ylmethyl-thiophen-2-yl)-propene-1-one]		96 mm Hg.h	1500 nM	40 nM
CN1CCN(Cc2ccc(/C=C/C(=O)N3CCc4c([nH]c5ccccc45)[C@H]3c3ccc4c(c3)CCO4)s2)CC1 [Example 16, (E)-1R-1-[1-(2,3-Dihydrobenzofuran-5-yl)-2,3,4,9-tetrahydro-β-carboline-2-yl]-3-(4-methyl-piperazin-1-ylmethyl-thiophen-2-yl)-propene-1-one]			3500 nM	4 nM
CN(C)Cc1ccc(/C=C/C(=O)N2CCc3c([nH]c4ccccc34)[C@H]2c2ccc3c(c2)CCO3)o1 [Example 17, (E)-1R-1-[1-(2,3-Dihydrobenzofuran-5-yl)-2,3,4,9-tetrahydro-β-carboline-2-yl]-3-(5-dimethylaminomethyl-furan-2-yl)-propene-1-one]		40 mm Hg.h	< 1000 nM	20 nM
CN(C)Cc1occc1/C=C/C(=O)N1CCc2c([nH]c3ccccc23)[C@H]1c1ccc2c(c1)CCO2 [Example 19, (E)-1R-1-[1-(2,3-Dihydrobenzofuran-5-yl)-2,3,4,9-tetrahydro-β-carboline-2-yl]-3-(2-dimethylaminomethyl-furan-3-yl)-propene-1-one]			4000 nM	40 nM
O=C(/C=C/c1cncnc1)N1CCc2c([nH]c3ccccc23)[C@H]1c1ccc2c(c1)CCO2 [Example 20, (E)-1R-1-[1-(2,3-Dihydrobenzofuran-5-yl)-2,3,4,9-tetrahydro-β-carboline-2-yl]-3-(pyrimidin-5-yl)-propene-1-one]		48 mm Hg.h	< 1000 nM	40 nM
Nc1ncc(/C=C/C(=O)N2CCc3c([nH]c4ccccc34)[C@H]2c2ccc3c(c2)CCO3)cn1 [Example 21, (E)-1R-1-[1-(2,3-Dihydrobenzofuran-5-yl)-2,3,4,9-tetrahydro-β-carboline-2-yl]-3-(2-amino-5-pyrimidin-5-yl)-propene-1-one]		124 mm Hg.h	< 1000 nM	7 nM
O=C(/C=C/c1cnc(N2CCCC2)nc1)N1CCc2c([nH]c3ccccc23)[C@H]1c1ccc2c(c1)CCO2 [Example 22]		9 mm Hg.h	< 1000 nM	6 nM
CN1CCN(c2ncc(/C=C/C(=O)N3CCc4c([nH]c5ccccc45)[C@H]3c3ccc4c(c3)CCO4)cn2)CC1 [Example 23]		108 mm Hg.h	< 1000 nM	8 nM
O=C(/C=C/c1ccc([N+](=O)[O-])s1)N1CCc2c([nH]c3ccccc23)[C@H]1c1ccc2c(c1)CCO2 [Example 26, (E)-1R-1-[1-(2,3-Dihydrobenzofuran-5-yl)-2,3,4,9-tetrahydro-β-carboline-2-yl]-3-(5-nitro-thiophen-2-yl)-propene-1-one]			< 1000 nM	40 nM
